Structures can show the parent of a compound that is named as a salt.
Target: T1, human TRPC6 (Homo sapiens, UniProt Q9Y210)
T1 construct: expressed in transfected cells
T1 sequence (Q9Y210 1-931): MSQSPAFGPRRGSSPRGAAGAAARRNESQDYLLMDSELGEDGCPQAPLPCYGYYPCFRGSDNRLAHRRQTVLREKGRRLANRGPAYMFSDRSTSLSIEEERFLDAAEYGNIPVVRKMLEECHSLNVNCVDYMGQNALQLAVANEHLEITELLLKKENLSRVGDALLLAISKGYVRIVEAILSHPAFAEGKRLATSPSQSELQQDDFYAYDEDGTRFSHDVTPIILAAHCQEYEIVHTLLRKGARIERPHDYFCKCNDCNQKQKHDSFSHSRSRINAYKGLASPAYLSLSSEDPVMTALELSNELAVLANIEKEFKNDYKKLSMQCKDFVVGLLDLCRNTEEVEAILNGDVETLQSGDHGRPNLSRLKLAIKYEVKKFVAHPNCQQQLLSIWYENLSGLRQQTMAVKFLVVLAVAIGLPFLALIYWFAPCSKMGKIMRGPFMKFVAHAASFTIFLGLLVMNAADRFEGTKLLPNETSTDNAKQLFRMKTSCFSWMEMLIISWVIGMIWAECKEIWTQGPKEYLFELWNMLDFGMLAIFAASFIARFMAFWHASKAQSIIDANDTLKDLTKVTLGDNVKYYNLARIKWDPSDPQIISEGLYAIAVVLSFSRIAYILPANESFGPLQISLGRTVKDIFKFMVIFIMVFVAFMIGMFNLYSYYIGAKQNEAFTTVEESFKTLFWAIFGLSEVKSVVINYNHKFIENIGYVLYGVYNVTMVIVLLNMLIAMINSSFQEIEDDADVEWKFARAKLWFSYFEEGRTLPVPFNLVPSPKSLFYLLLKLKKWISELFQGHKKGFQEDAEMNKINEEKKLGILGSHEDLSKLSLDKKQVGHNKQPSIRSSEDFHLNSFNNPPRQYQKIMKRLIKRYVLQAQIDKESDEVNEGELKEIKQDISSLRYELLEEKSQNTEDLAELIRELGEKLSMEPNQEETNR
Test: TRPC6 calcium flux assay (FLIPR, OAG-stimulated calcium influx)
Type: cell-based
Conditions: HEK293 cells stably transfected with human TRPC6, read-out: hTRPC6 Potency
Summary of the method: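 IC50 derived by plotting background-corrected peak fluorescence (180 s window, normalized to OAG-triggered signal vs buffer) against dose. Stable human TRPC6 HEK293 line was dye-loaded, exposed to compound 25 min, then challenged with 50 uM final OAG in 2 mM Ca2+ HEPES buffer pH 7.2, 0.5% DMSO.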

| Compound | IC50 |
| --- | --- |
| N[C@@H]1CN(c2nc3cc(F)ccc3n2Cc2ncc(Cl)cn2)CC[C@H]1O [Example 206, (3R,4R)-3-amino-1-(1-((5-chloropyrimidin-2-yl)methyl)-5-fluoro-1H-benzo[d]imidazol-2-yl)piperidin-4-ol] | 12.3 nM |
| N#Cc1ccc(Cn2c(N3CC[C@@H](O)[C@H](N)C3)nc3ccc(F)cc32)nc1 [Example 207, 6-((2-((3R,4R)-3-amino-4-hydroxypiperidin-1-yl)-6-fluoro-1H-benzo[d]imidazol-1-yl)methyl)nicotinonitrile] | 49.6 nM |
| N#Cc1ccc(Cn2c(N3CC[C@@H](O)[C@H](N)C3)nc3cc(F)ccc32)nc1 [Example 208, 6-((2-((3R,4R)-3-amino-4-hydroxypiperidin-1-yl)-5-fluoro-1H-benzo[d]imidazol-1-yl)methyl)nicotinonitrile] | 47.7 nM |
| N[C@H]1CCCN(c2nc3ccccc3n2Cc2ccc(Cl)cn2)C1 [Example 209, (S)-1-(1-((5-chloropyridin-2-yl)methyl)-1H-benzo[d]imidazol-2-yl)piperidin-3-amine] | 3.87 nM |
| N#Cc1ccc(Cn2c(N3CCC[C@H](N)C3)nc3ccccc32)cn1 [Example 210, (S)-5-((2-(3-aminopiperidin-1-yl)-1H-benzo[d]imidazol-1-yl)methyl)picolinonitrile] | 69.1 nM |
| N#Cc1ccc(Cn2c(N3CCC(F)(F)[C@H](N)C3)nc3ccccc32)nc1 [Example 212, (R)-6-((2-(3-amino-4,4-difluoropiperidin-1-yl)-1H-benzo[d]imidazol-1-yl)methyl)nicotinonitrile hydrochloride] | 3.5 nM |
| C[C@H](c1ccc(Cl)cn1)n1c(N2CC[C@@H](F)[C@H](N)C2)nc2ccccc21 [Example 215, (3R,4R)-1-(1-((R)-1-(5-chloropyridin-2-yl)ethyl)-1H-benzo[d]imidazol-2-yl)-4-fluoropiperidin-3-amine hydrochloride] | 593 nM |
| C[C@@H](c1ccc(Cl)cn1)n1c(N2CC[C@@H](F)[C@H](N)C2)nc2ccccc21 [Example 216, (3R,4R)-1-(1-((S)-1-(5-chloropyridin-2-yl)ethyl)-1H-benzo[d]imidazol-2-yl)-4-fluoropiperidin-3-amine hydrochloride] | 11.4 nM |
| C[C@H](c1ccc(Cl)cn1)n1c(N2CC[C@@H](F)[C@H](N)C2)nc2cc(F)c(F)cc21 [Example 217, (3R,4R)-1-(1-((R)-1-(5-chloropyridin-2-yl)ethyl)-5,6-difluoro-1H-benzo[d]imidazol-2-yl)-4-fluoropiperidin-3-amine hydrochloride] | 68.7 nM |
| C[C@H](c1ccc(Cl)cn1)n1c(N2CC[C@@H](F)[C@H](N)C2)nc2cc(Cl)ccc21 [Example 219, (3R,4R)-1-(5-chloro-1-((R)-1-(5-chloropyridin-2-yl)ethyl)-1H-benzo[d]imidazol-2-yl)-4-fluoropiperidin-3-amine hydrochloride] | 15.9 nM |
| C[C@H](c1ccc(Cl)cn1)n1c(N2CC[C@@H](F)[C@H](N)C2)nc2ccc(Cl)cc21 [Example 221, (3R,4R)-1-(6-chloro-1-((R)-1-(5-chloropyridin-2-yl)ethyl)-1H-benzo[d]imidazol-2-yl)-4-fluoropiperidin-3-amine hydrochloride] | 54.9 nM |
| C[C@H](c1ccc(C#N)cn1)n1c(N2CC[C@@H](F)[C@H](N)C2)nc2ccc(C#N)cc21 [Example 223, 2-((3R,4R)-3-amino-4-fluoropiperidin-1-yl)-1-((R)-1-(5-cyanopyridin-2-yl)ethyl)-1H-benzo[d]imidazole-6-carbonitrile hydrochloride] | 51.5 nM |
| C[C@H](c1ccc(C#N)cn1)n1c(N2CC[C@@H](F)[C@H](N)C2)nc2cc(C#N)ccc21 [Example 224, 2-((3R,4R)-3-amino-4-fluoropiperidin-1-yl)-1-((R)-1-(5-cyanopyridin-2-yl)ethyl)-1H-benzo[d]imidazole-5-carbonitrile hydrochloride] | 158 nM |
| C[C@@H](c1ccc(C#N)cn1)n1c(N2CC[C@@H](F)[C@H](N)C2)nc2cc(C#N)ccc21 [Example 226, 2-((3R,4R)-3-amino-4-fluoropiperidin-1-yl)-1-((S)-1-(5-cyanopyridin-2-yl)ethyl)-1H-benzo[d]imidazole-5-carbonitrile hydrochloride] | 13.7 nM |
| N[C@@H]1CN(c2nc3cc(F)cc(F)c3n2Cc2ccc(Cl)cn2)CCC1(F)F [Example 229, (R)-1-(1-((5-chloropyridin-2-yl)methyl)-5,7-difluoro-1H-benzo[d]imidazol-2-yl)-4,4-difluoropiperidin-3-amine hydrochloride] | 42.2 nM |
| N#Cc1ccc2c(c1)CC[C@H]2n1c(N2CC[C@@H](F)[C@H](N)C2)nc2ccccc21 [Example 231, (R)-1-(2-((3R,4R)-3-amino-4-fluoropiperidin-1-yl)-1H-benzo[d]imidazol-1-yl)-2,3-dihydro-1H-indene-5-carbonitrile hydrochloride] | 737 nM |

Now those with a lower IC50, led by results:

| IC50 | Compound |
| --- | --- |
| 1.09 nM | N[C@@H]1CN(c2nc3ccccc3n2Cc2ccc(Cl)cn2)CC[C@H]1F [Example 211, (3R,4R)-1-(1-((5-chloropyridin-2-yl)methyl)-1H-benzo[d]imidazol-2-yl)-4-fluoropiperidin-3-amine hydrochloride] |
| 0.82 nM | C[C@@H](c1ccc(Cl)cn1)n1c(N2CC[C@@H](F)[C@H](N)C2)nc2cc(F)c(F)cc21 [Example 218, (3R,4R)-1-(1-((S)-1-(5-chloropyridin-2-yl)ethyl)-5,6-difluoro-1H-benzo[d]imidazol-2-yl)-4-fluoropiperidin-3-amine hydrochloride] |
| 0.986 nM | C[C@@H](c1ccc(Cl)cn1)n1c(N2CC[C@@H](F)[C@H](N)C2)nc2cc(Cl)ccc21 [Example 220, (3R,4R)-1-(5-chloro-1-((S)-1-(5-chloropyridin-2-yl)ethyl)-1H-benzo[d]imidazol-2-yl)-4-fluoropiperidin-3-amine hydrochloride] |
| 2.04 nM | C[C@@H](c1ccc(Cl)cn1)n1c(N2CC[C@@H](F)[C@H](N)C2)nc2ccc(Cl)cc21 [Example 222, (3R,4R)-1-(6-chloro-1-((S)-1-(5-chloropyridin-2-yl)ethyl)-1H-benzo[d]imidazol-2-yl)-4-fluoropiperidin-3-amine hydrochloride] |
| 2.81 nM | C[C@@H](c1ccc(C#N)cn1)n1c(N2CC[C@@H](F)[C@H](N)C2)nc2ccc(C#N)cc21 [Example 225, 2-((3R,4R)-3-amino-4-fluoropiperidin-1-yl)-1-((S)-1-(5-cyanopyridin-2-yl)ethyl)-1H-benzo[d]imidazole-6-carbonitrile hydrochloride] |
| 0.328 nM | N[C@@H]1CN(c2nc3cc(F)c(F)cc3n2Cc2ccc(Cl)cn2)CC[C@H]1F [Example 227, (3R,4R)-1-(1-((5-chloropyridin-2-yl)methyl)-5,6-difluoro-1H-benzo[d]imidazol-2-yl)-4-fluoropiperidin-3-amine hydrochloride] |
| 0.32 nM | N[C@@H]1CN(c2nc3cc(F)c(F)cc3n2Cc2ccc(F)cn2)CC[C@H]1F [Example 228, (3R,4R)-1-(5,6-difluoro-1-((5-fluoropyridin-2-yl)methyl)-1H-benzo[d]imidazol-2-yl)-4-fluoropiperidin-3-amine hydrochloride] |
| 0.49 nM | N[C@@H]1CN(c2nc3c(F)cc(F)cc3n2Cc2ccc(Cl)cn2)CCC1(F)F [Example 230, (R)-1-(1-((5-chloropyridin-2-yl)methyl)-4,6-difluoro-1H-benzo[d]imidazol-2-yl)-4,4-difluoropiperidin-3-amine hydrochloride] |
